Reference: patent US20220323406A1, “METHODS AND COMPOSITIONS FOR DIFFERENTIATING STEM CELLS” (Massachusetts Institute of Technology, priority 2019, published 2022)

Columns and labels:
Details in all cases: primary screen
[1] = test system: ENR+CD organoids (ISC to Paneth cell differentiation); assay: Primary screen: basal (non-stimulated) lysozyme secretion LYZ.NS, 2.5-D 384-well ENR+CD organoid differentiation; type: cell-based, mouse
From the text: (§1) High-throughput screening.

[2] = test system: ENR+CD organoids (ISC to Paneth cell differentiation); assay: Primary screen: CCh-stimulated lysozyme secretion LYZ.S, 2.5-D 384-well ENR+CD organoid differentiation; type: cell-based, mouse
From the text: as §1

ENR+CD organoids = assay: Primary screen: ATP (CellTiter-Glo 3D, CTG) cell number/viability, 2.5-D 384-well ENR+CD organoids;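 note: compounds given at plating and again on day 3 over a 6-day differentiation from ENR+CV stem-cell-enriched precursors, ATP measured on day 6, plate median as control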

| SMILES | Dose.FC.LYZ.NS ([1]; dose 0.08 uM) [log2 fold change] | Z.LYZ.NS (standard z score) ([1]; dose 0.08 uM) | Dose.FC.LYZ.NS ([1]; dose 0.40 uM) [log2 fold change] | Z.LYZ.NS (standard z score) ([1]; dose 0.40 uM) | Dose.FC.LYZ.NS ([1]; dose 2.00 uM) [log2 fold change] | Z.LYZ.NS (standard z score) ([1]; dose 2.00 uM) | Dose.FC.LYZ.NS ([1]; dose 10.00 uM) [log2 fold change] | Z.LYZ.NS (standard z score) ([1]; dose 10.00 uM) | Dose.FC.LYZ.S ([2]; dose 0.08 uM) [log2 fold change] | Dose.FC.LYZ.S ([2]; dose 0.40 uM) [log2 fold change] | Dose.FC.LYZ.S ([2]; dose 2.00 uM) [log2 fold change] | Dose.FC.LYZ.S ([2]; dose 10.00 uM) [log2 fold change] | Dose.FC.CTG (ENR+CD organoids; dose 0.08 uM) [log2 fold change] | Dose.FC.CTG (ENR+CD organoids; dose 0.40 uM) [log2 fold change] | Dose.FC.CTG (ENR+CD organoids; dose 2.00 uM) [log2 fold change] | Dose.FC.CTG (ENR+CD organoids; dose 10.00 uM) [log2 fold change] | Z.CTG (standard z score) (ENR+CD organoids; dose 0.08 uM) | Z.CTG (standard z score) (ENR+CD organoids; dose 0.40 uM) | Z.CTG (standard z score) (ENR+CD organoids; dose 2.00 uM) | Z.CTG (standard z score) (ENR+CD organoids; dose 10.00 uM) |
| --- | --- | --- | --- | --- | --- | --- | --- | --- | --- | --- | --- | --- | --- | --- | --- | --- | --- | --- | --- | --- |
| CC(C)(C#N)c1cc(Cn2cncn2)cc(C(C)(C)C#N)c1 [Anastrozole] | 0.035 | 0.305 | 0.106 | 0.924 | −0.003 | −0.026 | −0.067 | −0.580 | 0.045 | 0.100 | −0.008 | −0.081 | −0.117 | 0.024 | −0.058 | −0.499 | – | – | – | – |
| COc1cc(F)c(C(C)C)cc1-c1ccc(C(F)(F)F)cc1CN1C(=O)O[C@H](c2cc(C(F)(F)F)cc(C(F)(F)F)c2)[C@@H]1C [Anacetrapib (MK-0859)] | 0.013 | 0.112 | 0.007 | 0.060 | −0.015 | −0.129 | −0.036 | −0.314 | 0.051 | −0.002 | −0.046 | −0.036 | −0.090 | 0.035 | −0.094 | 0.031 | −0.214 | 0.084 | −0.225 | 0.075 |
| Cl.N[C@@H]1C[C@H]1c1ccccc1 (racemic) [Tranylcypromine (2-PCPA) HCl] | 0.033 | 0.285 | −0.049 | −0.426 | 0.049 | 0.423 | −0.045 | −0.389 | 0.050 | −0.037 | 0.036 | −0.096 | −0.064 | 0.062 | 0.053 | −0.533 | −0.153 | 0.148 | 0.128 | −1.274 |
